Test results reported in PMC7777204, “Locking mixed-lineage kinase domain-like protein in its auto-inhibited state prevents necroptosis” (Proceedings of the National Academy of Sciences of the …, 2020).

Legend:
Jurkat FADD−/− cells [1] = assay: Jurkat FADD−/− necroptosis assay; type: cell-based; conditions: Homo sapiens, 10 ng/mL huTNFα, 24 h, Cell Titer Glo viability, read-out: Jurkat NEC IC50
Experimental: (§1) For the Jurkat FADD^−/− Necroptosis assay, compounds were serially diluted in 100% dimethyl sulfoxide (DMSO) (Sigma-Aldrich catalog no. 41641), and 250 nL was transferred to a sterile 384-well microtiter plate (PerkinElmer catalog no. 6007688) via Echo liquid handler (LABCYTE). Five thousand Jurkat FADD ^−/− cells (ATCC catalog no. CRL-2572) in 20 µL of modified Roswell Park Memorial Institute medium (Gibco catalog no. 10491), 10% fetal calf serum (Gibco catalog no. 100500), 1x Anti/Anti (Gibco catalog no. 15240-062), 1x L-Glutamax (Gibco catalog no. 35050-087), and 1% PenStrep (SIGMA catalog no. P4333) were seeded into each well of the prepared assay plate with compound. Cells and compounds were incubated for 30 min at 37 °C (humidified incubator with 5% CO2). After incubation, 5 µL of recombinant human TNFα (huTNFα) (Biotrend catalog no. cyt-223; 10 ng/mL final concentration [f.c.]) was added to the cells, followed by an incubation of 24 h at 37 °C. Following the incubation, the experimental plates were equilibrated to room temperature (30 min) before 25 µL of Cell Titer Glo Luminescent Cell Viability Assay System reagent (Promega catalog no. G7571) was added to the plate wells, incubated at room temperature for ∼10 min. After incubation, the samples were analyzed for luminescence by using an Envision reader (PerkinElmer).
(§2) Each assay plate contained wells with “high” and “low” controls. High controls (100% CTL) were defined as cells treated with DMSO, and low controls (0% CTL) were defined as cells treated with 10 ng/mL recombinant huTNFα. IC50 values were calculated based on the percentage of control values using a four-parameter-fitting model.
(§3) All cellular assays were done for Cpd 1, Cpd 2, Cpd 3, Cpd 4, and Cpd 5 in duplicate and in quadruplet for NSA.

Jurkat FADD−/− cells [2] = assay: Jurkat FADD−/− cytotox assay; type: cell-based; conditions: Homo sapiens, without huTNFα, Cell Titer Glo viability, read-out: Jurkat TOX IC50
Experimental: as §1
MLKL antagonists were tested in cytotox assays by using Jurkat FADD^−/− and U937 cells according to the assay procedures described for the necroptosis assays, but without treatment with recombinant huTNFα and/or zVAD-fmk. High controls (100% CTL, no effect) were defined as cells treated with DMSO, and low controls (0% CTL) were defined as medium without cells (0% CTL, maximal effect).
as §3

U937 cells = assay: U937 necroptosis assay; type: cell-based; conditions: Homo sapiens, U-937, huTNFα plus 10 µM zVAD-fmk, read-out: U937 NEC IC50
Experimental: as §1, §2
MLKL antagonists were also evaluated in a necroptosis assay with U937 cells ([26]) (ATCC catalog no. CRL-1593.2). The assay procedure with U937 cells was as described for the Jurakt FADD^−/− necroptosis assay with the following modifications: 8,000 cells were seeded per well, and, in addition to the recombinant huTNFα, cells were also incubated in the presence of 10 µM (f.c.) carbobenzoxy-valyl-alanyl-aspartyl-[O-methyl]-fluoromethylketone (zVAD-fmk) (Enzo Life Sciences catalog no. ALX-260-020). Low controls (0% CTL) were defined as cells treated with 100 ng/mL recombinant huTNFα plus 10 µM zVAD-fmk.
as §3

MLKL executioner domain = target: T1, MLKL executioner domain (Homo sapiens, UniProt Q8NB16); assay: Real-time NMR of MLKL oligomerization; type: biochemical; conditions: after 48 h, 50 µM IP6, 12 mM NM, 500 µM Cpd 3, 300 µM MLKL, 298 K
T1 construct: 80 µM MLKL N-terminal executioner domain (residues 1 to 154) was used; GST (thrombin cleavage site) (cleaved yes)
T1 sequence (Q8NB16 1-154): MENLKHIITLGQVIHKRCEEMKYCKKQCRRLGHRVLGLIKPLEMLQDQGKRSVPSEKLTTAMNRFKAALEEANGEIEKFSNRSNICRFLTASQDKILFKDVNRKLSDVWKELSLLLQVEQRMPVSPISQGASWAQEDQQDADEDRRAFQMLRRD
Experimental: While MLKL was stable in the presence of either 500 µM IP6 or 12 mM NM (SI Appendix, Fig. S13), dispersed peaks were disappearing over time in the presence of the combination of the two. Monitoring this decay by real-time NMR, a series of ^1H,^15N-correlation spectra were recorded in the presence of 12 mM NM and 50 µM IP6. The latter concentration was reduced to slow down the process to enable real-time NMR detection, because at 500 µM IP6 concentration, 86% activation could be observed in the functional assay in the ^1H,^15N-correlation spectrum measured directly after sample preparation. The loss of peak intensity can be fitted with a biexponential decay with a fast time constant (Tf) of 0.35 ± 0.07 h and a slow time constant (Ts) of 10.0 ± 1.0 h. […] In addition to the known peaks reporting on the active state with α-helix 6 being detached (Ala141 N,H and Trp133 Nε1,Hε1), peaks in the random coil region of the spectrum appeared (Fig. 4A). […] Secondary chemical shifts confirmed that α-helix 6 becomes largely unfolded and has, according to ^15N-relaxation data, increased mobility (τC = 10 ns) and reduced rigidity (heteronuclear NOE around zero) in the activated state (SI Appendix, Fig. S10).
After 48 h, these signals decayed only to ∼70% intensity. Cross-peaks reporting on the unfolded, detached α-helix 6 likewise appeared more slowly in the presence of Cpd 3 (Fig. 4 B–D). […]

Cn1c(=O)c2c(nc(S(C)(=O)=O)n2C)n(CC#Cc2cccc(O)c2)c1=O [Cpd 3]
IC50 (Jurkat FADD−/− cells [1]): 541 nM
IC50 (Jurkat FADD−/− cells [2]): 13600 nM
IC50 (U937 cells): 271 nM
Remaining intensity of dispersed signals (MLKL executioner domain): ~70%
